Like-named read-outs stand apart in the source and are kept apart here.
How the values were obtained:
[1] = One-photon absorption/emission spectra and fluorescence quantum yield; format: physicochemical; details: for Φ, fluorescence quantum yield: ±15%; for pH sensitivity of fluorescence: biologically relevant pH range
Experimental: Absorption spectra were recorded on a Hewlett-Packard 8453 diode array spectrophotometer, and fluorescence spectra were obtained with Amico-Bowman series 2 luminescence spectrometer with a 1-cm standard quartz cell. The fluorescence quantum yield was determined by using Coumarin 307 and Rhodamine B as the reference.

A549 cells [2] = details: 0.049 µM
A549 cells [3] = assay: Effect of anticancer agents on AG2 uptake by A549 cells
[4] = system: Human colon cancer tissue and normal tissue; assay: TPM imaging of AG2 uptake in human colon normal and cancer tissue slices
Experimental: In the present invention, an additional assessment was made of the utility of AG2 in tissue imaging for the diagnosis of colon cancer. In this regard, the images of normal- and cancer-tissue slices from colon-cancer patients were employed. […] The tissues were incubated in artificial cerebrospinal fluid (ACSF) for 4 h at 37° C. in the absence and presence of taxol (50 μM), after which AG2 uptake was monitored with TPM by following the change in TPEF at a depth of 100 μm.
Human colon cancer tissue and normal tissue were obtained from colon cancer patients by conducting colonoscopic examinations and taking samples.
Normal tissues, cancerous tissue, and cancerous tissue containing 50 μM taxol were incubated in artificial cerebrospinal fluid (ACSF) bubbled with 95% O2 and 5% CO2 for 4 hrs at 37° C. The tissues were then washed three times with ACSF, transferred to glass-bottomed dishes (MatTek), added with 50 μM AG2, and observed by TPM.
To determine whether the relative uptake was affected by incubation in ACSF, the same experiment was conducted with normal tissue and colon cancerous tissue obtained immediately after the colonoscopic biopsy.

[5] = system: A549, HeLa, HEK293 and NIH/3T3 cells; assay: Relative AG2 uptake by cancer and normal cell lines (TPM); format: cell-based; details: A549, HeLa vs HEK293, NIH/3T3
Text: In order to assess whether AG2 is selectively taken up by cancer cells, the efficiencies of AG2 uptake by A549 (lung carcinoma cell line), HeLa (cervical cancer cell line), HEK293 (human embryonic kidney 293 cell line), and NIH/3T3 (murine fibroblast cell line) cells were compared. […] Therefore, AG2 can be used for visualizing glucose uptake in living cells by TPM, without subjecting the cells to glucose starvation.
(§1) A549 human lung carcinoma cells, HeLa human cervical carcinoma cells, NIH/3T3 murine fibroblast cells, and HEK293 human embryonic kidney cells were obtained from American Type Culture Collection (ATCC, Manassas, Va., USA). A549 cells were cultured in RPMI 1640 (WelGene) supplemented with heat-inactivated 10% FBS (WelGene), penicillin (100 units/mL), and streptomycin (100 μg/mL).
NIH/3T3 cells, HeLa cells, and HEK293 cells were cultured in DMEM (WelGene) supplemented with heat-inactivated 10% FBS (WelGene), penicillin (100 units/mL), and streptomycin (100 μg/mL). All the cell lines were maintained in a humidified atmosphere of 5% CO2 and 95% air at 37° C. […]
(§2) For comparison of the relative uptake of AG1 and AG2 per unit cell, the TPEF intensities from regions of interest were chosen without bias from among 40-60 cells as determined by the photomultiplier tube (PMT) and the data were digitalized using Histogram (a program for data analysis).

A549 cells [6] = assay: Competition experiment for uptake pathway; format: cell-based, human; details: for Reduction of AG2 fluorescence intensity in A549 cells: AG2 50 μM, 10 min
Experimental: To determine whether the intracellular uptake pathway of AG2 is relevant to that of D-glucose, a competition experiment was conducted.
To this end, A549 cells were incubated with AG2 (50 μM) for 10 min in the presence of 0, 10, and 50 mM D-glucose, and 50 mM L-glucose, and relative AG2 uptake was determined by TPM.

A549 cells [7] = assay: Tracer uptake by A549 cells, TPM imaging (optimum concentration); format: cell-based; details: for Cell death in A549 cells: 100 μM probe, 30 min; for Uptake rate (time) in A549 cells: A549 cells labeled with tracer
Experimental: as §1
For labeling, the growth medium was removed and replaced with serum-free RPMI 1640 (without D-glucose) (United Search Partners, Austin, Tex., USA).
The cells were treated and incubated with the required concentration of a tracker at 37° C. for 10 min.
Thereafter, the cells were washed three times with phosphate buffered saline (PBS; Gibco) and then imaged.
as §2
In determine the optimum concentration for the uptake experiment, TPM images of A549 cells labeled for 30 min with 6, 12.5, 25, 50, and 100 μM of AG1 and AG2 were compared. The image appeared brighter as the probe concentration was increased up to 50 μM; however, at higher concentrations than this, cell death was observed.
Moreover, the uptake rate was faster (600 vs 800 s) and the TPM image was brighter when the cells were labeled with AG2 than when they were treated with AG1 (FIG. 3). Therefore, 50 μM of AG2 was used for the uptake experiments.

[8] = Measurement of two-photon cross section (TPEF method); format: physicochemical; details: for Φδmax, two-photon action cross-section / λmax of the two-photon absorption spectrum / δmax, peak two-photon cross-section: PBS buffer; for δmax, peak two-photon cross-section: ±15%
Experimental: The two-photon cross section (δ) was determined using the femto second (fs) fluorescence measurement technique as described previously. AG1, AG2, Cy3-Glc-α, and 2-NBDG were dissolved in 30 mM PBC buffer (137 mM NaCl, 3 mM KCl, 10 mM Na2HPO4, 2 mM KH2PO4, pH 7.4) at a concentration of 5.0×10^−6 M and then the two-photon induced fluorescence intensity was measured at 740-940 nm by using fluorescein (8.0×10^−5 M, pH=11) as the reference, whose two-photon property has already been well characterized. The intensities of the two photon induced fluorescence spectra of the reference and sample emitted at the same excitation wavelength were determined.
The TPA cross section was calculated according to Eq. 1,
The results are shown in FIG. 1 and the above-described Table 1.

A549 cells [9] = assay: Viability of A549 cells with CCK-8 kit; format: cell-based, human; details: 50 μM, 10 min
Experimental: FIG. 7: Viability of A549 cells in the presence of AG2 as measured by using CCK-8 kit. The cells were incubated with 50 μM AG2 for 10 min.
In order to confirm that the tracer couldn't affect the viability of A549 cells in the incubation condition, a CCK-8 kit (Cell Counting Kit-8, Dojindo, Japan) was used according to the manufacturer's protocol.

[10] = from The Handbook (Molecular Probes); cited from earlier work

Row | Molecule | λ(1)max, one-photon absorption maximum ([1]; PBS buffer) | λflmax, one-photon emission maximum ([1]; PBS buffer) | Φ, fluorescence quantum yield ([1]; PBS buffer) | Cell death in A549 cells (A549 cells [7]) | Uptake rate (time) in A549 cells (A549 cells [7]) | Φδmax, two-photon action cross-section [8] | λmax of the two-photon absorption spectrum [8] | δmax, peak two-photon cross-section [8] | λ(1)max, one-photon absorption maximum ([1]; DMF (ETN 0.386)) | λflmax, one-photon emission maximum ([1]; DMF (ETN 0.386)) | Φ, fluorescence quantum yield ([1]; DMF (ETN 0.386)) | λ(1)max, one-photon absorption maximum ([1]; Dioxane (ETN 0.164)) | λflmax, one-photon emission maximum ([1]; Dioxane (ETN 0.164)) | Φ, fluorescence quantum yield ([1]; Dioxane (ETN 0.164)) | λ(1)max, one-photon absorption maximum ([1]; EtOH (ETN 0.654)) | λflmax, one-photon emission maximum ([1]; EtOH (ETN 0.654)) | Φ, fluorescence quantum yield ([1]; EtOH (ETN 0.654)) | λ(1)max, one-photon absorption maximum ([1]; H2O (ETN 1.00)) | λflmax, one-photon emission maximum ([1]; H2O (ETN 1.00)) | Φ, fluorescence quantum yield ([1]; H2O (ETN 1.00)) | further results
1 | cyanine-3-linked O-1-glycosylated glucose [Cy3-Glc-α, reference compound] | 545 nm | 555 nm | 0.01 | – | – | – | – | – | – | – | – | – | – | – | – | – | – | – | – | – | –
2 | CC(=O)O[C@H]1C(=O)[C@@]2(C)[C@H]([C@H](OC(=O)c3ccccc3)[C@]3(O)C[C@H](OC(=O)[C@H](O)[C@@H](NC(=O)c4ccccc4)c4ccccc4)C(C)=C1C3(C)C)[C@]1(OC(C)=O)CO[C@@H]1C[C@@H]2O [Taxol, taxol] | – | – | – | – | – | – | – | – | – | – | – | – | – | – | – | – | – | – | – | – | AG2 uptake by A549 (A549 cells [2]; 6 h): 89.6%; AG2 uptake by A549 (A549 cells [2]; 12 h): 69.5%; Cellular uptake of AG2 versus incubation time with agent (A549 cells [3]; A549 cells incubated 1, 3, 6, 12, 24 h with agent): lower with longer incubation times; AG2 uptake by A549 (A549 cells [3]; agent 49 nM (second line, r8), after 6 h): 96.7%; AG2 uptake by A549 (A549 cells [3]; agent 49 nM (second line, r8), after 12 h): 81.8%; AG2 uptake by A549 (A549 cells [3]; agent 9.8 μM, after 6 h): 69.5%; AG2 uptake by A549 (A549 cells [3]; agent 9.8 μM, after 12 h): 50.7%; AG2 uptake of cancer tissue pretreated with agent ([4]; colon cancer tissue, agent 50 μM for 4 hrs in ACSF, depth 100 μm): much slower AG2 uptake than the untreated one
3 | COc1ccc(C[C@@H](O)c2cc(OC)c(OC)c(OC)c2)cc1O [Combrestastatin, combretastatin] | – | – | – | – | – | – | – | – | – | – | – | – | – | – | – | – | – | – | – | – | AG2 uptake by A549 (A549 cells [3]; agent 2 μM, after 6 h): 70.2%; AG2 uptake by A549 (A549 cells [3]; agent 2 μM, after 12 h): 53.2%
4 | CC(=O)c1ccc2cc(N(C)CC(=O)N3CCN(CCOC4OC(CO)C(O)C(O)C4O)CC3)ccc2c1 (centres unmarked) [AG2] | 375 nm | 501 nm | 0.56 | some cell death was observed | 600 s | 88 GM | 780 nm | 155 GM | 369 nm | 449 nm | 1.00 | 362 nm | 425 nm | 0.72 | 370 nm | 480 nm | 0.97 | 375 nm | 501 nm | 0.56 | Efficiency of AG2 uptake by cell lines [5]: most efficient in A549 and HeLa cells, followed by HEK293 and NIH/3T3 cells; Reduction of AG2 fluorescence intensity in A549 cells (A549 cells [6]; medium with 10 mM D-glucose vs glucose-depleted medium): about 16%; Reduction of AG2 fluorescence intensity in A549 cells (A549 cells [6]; medium with 50 mM D-glucose vs glucose-depleted medium): ~74%; AG2 fluorescence intensity in A549 cells (A549 cells [6]; medium with 50 mM L-glucose): not affected; AG2 uptake by A549 cells (A549 cells [6]; presence of 55 mM D-/L-alanine): not influenced; pH sensitivity of fluorescence [1]: pH insensitive; Effect on viability of cells (CCK8 kit) (A549 cells [9]): negligible toxicity; AG2 uptake in cancer tissue versus normal tissue ([4]; colon tissue slices, 50 μM AG2, depth 100 μm): much faster than in the normal tissue
5 | CC(=O)c1ccc2cc(N(C)CC(=O)NCCOCCOCCNCCOC3OC(CO)C(O)C(O)C3O)ccc2c1 (centres unmarked) [AG1] | 373 nm | 501 nm | 0.90 | some cell death was observed | 800 s | 86 GM | 780 nm | 95 GM | 366 nm | 451 nm | 1.00 | 360 nm | 434 nm | 0.59 | 364 nm | 479 nm | 1.00 | 373 nm | 501 nm | 0.90 | Φδ value from TP action spectrum ([8]; at 780 nm): approximately 90 GM; pH sensitivity of fluorescence [1]: pH insensitive
6 | O=[N+]([O-])c1ccc(NC2C(O)OC(CO)C(O)C2O)c2nonc12 [2-NBDG, 2-[N-(7-nitrobenz-2-oxa-1,3-diazol-4-yl)-amino]-2-deoxy-D-glucose] | – | – | – | – | – | – | – | – | – | – | – | – | – | – | – | – | – | – | – | – | λ(1)max, one-photon absorption maximum [10]: 465 nm; λflmax, one-photon emission maximum [10]: 540 nm
